Strand notation (5' to 3'): a small letter for the sugar, then the base; units joined by * are phosphorothioate-linked, units joined directly phosphodiester-linked; [ ] holds rarer units or linkages, { } end groups; capitals alone tell only the bases. k = constrained ethyl (cEt); [5mC] = 5-methylcytosine; d = 2'-deoxy (DNA)

One series has as its system human SMAD7 mRNA. Briefly: Antisense inhibition of human SMAD7 mRNA expression in Hep3B cells by 3-10-3 cEt gapmers, 10,000 nM, electroporation (Example 2). It is filed as cell-based. To be noted: Hep3B cells, 10,000 nM antisense oligonucleotide, electroporation, approximately 24 hours, RT-PCR primer probe set RTS5062, relative to untreated control cells. A digest of the protocol:
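Percent inhibition of SMAD7 mRNA, relative to untreated cells, after ~24 h exposure of electroporated Hep3B cells to 10,000 nM cEt gapmer; levels by qRT-PCR, corrected for total RNA.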
On to “799837 (antisense kT*k[5mC]*kA*dT*dA*dA*dG*d[5mC]*dA*dT*dA*dG*dA*kT*kT*kT) [compound 799837]”, for which the “% Inhibition” value came to 38%.

On to “799838 (antisense kT*kT*kG*d[5mC]*dA*d[5mC]*d[5mC]*d[5mC]*d[5mC]*d[5mC]*dA*dT*dA*kA*k[5mC]*kT) [compound 799838]”, for which the “% Inhibition” value worked out at 2%.

“799839 (antisense kA*kG*k[5mC]*dA*d[5mC]*dA*dA*dT*dA*dT*dG*dA*dA*kT*kG*kT) [compound 799839]”: the “% Inhibition” value was 36%.

For “799840 (antisense kA*kG*kG*dG*dA*dA*dG*dT*dT*dA*dG*dT*dG*kT*kT*kT) [compound 799840]”, the “% Inhibition” value is recorded as 22%.

Turning to “799852 (k[5mC]*kA*kA*dG*dT*dG*dT*d[5mC]*d[5mC]*dA*dT*d[5mC]*dA*kA*kG*k[5mC]; antisense) [compound 799852]”, the “% Inhibition” value amounted to 11%.

Turning to “799853 (k[5mC]*k[5mC]*kA*dA*dG*dT*dG*dT*d[5mC]*d[5mC]*dA*dT*d[5mC]*kA*kA*kG; antisense) [compound 799853]”, the “% Inhibition” value amounted to 42%.

“799855 (kA*kG*k[5mC]*d[5mC]*dA*dA*dG*dT*dG*dT*d[5mC]*d[5mC]*dA*kT*k[5mC]*kA; antisense) [compound 799855]”: the “% Inhibition” value came to 52%.

For “799856 (kG*k[5mC]*kA*dA*dG*d[5mC]*d[5mC]*dA*dA*dG*dT*dG*dT*k[5mC]*k[5mC]*kA; antisense) [compound 799856]”, the “% Inhibition” value was 43%.

As for “799857 (kA*kG*kA*dA*d[5mC]*dT*dG*dA*dA*dA*dG*d[5mC]*dG*kG*k[5mC]*kG; antisense) [compound 799857]”, the “% Inhibition” value is 31%.

For the substance “799859 (kT*kG*kT*dA*dA*dT*dT*dT*dA*dG*d[5mC]*dA*dA*kT*kT*k[5mC]; antisense) [compound 799859]”, the “% Inhibition” value is reported as 32%.

With “799860 (kT*kG*k[5mC]*d[5mC]*dG*dA*d[5mC]*dA*d[5mC]*dA*dT*dG*dA*kG*kG*k[5mC]; antisense) [compound 799860]”, the “% Inhibition” value was found to be 0%.

The same series, now with this note: Hep3B cells, electroporation with 10,000 nM antisense oligonucleotide, approximately 24 hours, RTS5062, percent inhibition of SMAD7 mRNA relative to untreated control cells.
As for “799821 (antisense k[5mC]*k[5mC]*k[5mC]*d[5mC]*dA*dG*dA*dA*dA*dA*d[5mC]*dA*dG*k[5mC]*k[5mC]*k[5mC]) [compound 799821]”, the “% Inhibition” value was 17%.

On to “799822 (antisense k[5mC]*kA*k[5mC]*dG*dA*dT*d[5mC]*d[5mC]*dT*dG*dG*dG*d[5mC]*kT*k[5mC]*kT) [compound 799822]”, for which the “% Inhibition” value was 0%.

Turning to “799823 (antisense kA*k[5mC]*kA*dG*dG*dA*dA*dA*dG*dT*dG*dG*dA*kG*kG*kA) [compound 799823]”, the “% Inhibition” value is listed as 46%.

Turning to “799824 (antisense kG*kA*kA*dA*dT*dG*dG*d[5mC]*dT*d[5mC]*d[5mC]*dT*dG*k[5mC]*kA*kA) [compound 799824]”, the “% Inhibition” value stood at 9%.

On to “799825 (antisense kG*kA*k[5mC]*dT*dT*dG*dG*d[5mC]*dA*dG*d[5mC]*d[5mC]*dA*kA*kG*k[5mC]) [compound 799825]”, for which the “% Inhibition” value is reported as 0%.

“799826 (antisense kG*kA*kT*d[5mC]*dA*dT*dT*d[5mC]*d[5mC]*d[5mC]*dA*d[5mC]*dA*k[5mC]*k[5mC]*k[5mC]) [compound 799826]”: the “% Inhibition” value worked out at 33%.

As for “799827 (antisense kA*kA*k[5mC]*dT*dA*d[5mC]*dA*dA*d[5mC]*d[5mC]*dT*dT*dT*kT*kT*kA) [compound 799827]”, the “% Inhibition” value is on record as 26%.

On to “799828 (antisense kT*kG*k[5mC]*dG*dA*dG*d[5mC]*d[5mC]*dA*dA*dG*dA*dG*kA*k[5mC]*kA) [compound 799828]”, for which the “% Inhibition” value is 54%.

Consider “799829 (antisense kG*kA*kG*dT*dT*dT*dG*d[5mC]*dG*dA*dG*d[5mC]*d[5mC]*kA*kA*kG) [compound 799829]”, for which the “% Inhibition” value stood at 75%.

On to “799830 (antisense kG*kA*kA*dG*dA*dG*dT*dT*dT*dG*d[5mC]*dG*dA*kG*k[5mC]*k[5mC]) [compound 799830]”, for which the “% Inhibition” value was 55%.

With “799841 (antisense kA*kA*kA*dG*dA*dA*dT*dG*dG*dT*dG*dG*dG*kT*kG*k[5mC]) [compound 799841]”, the “% Inhibition” value turned out to be 37%.

In the case of “799842 (antisense kG*kA*kA*dA*dG*dA*dA*dT*dG*dG*dT*dG*dG*kG*kT*kG) [compound 799842]”, the “% Inhibition” value was 16%.

Turning to “799843 (antisense kG*kG*kA*dG*dG*dA*dG*dG*d[5mC]*dA*dA*dA*dT*kT*k[5mC]*kA) [compound 799843]”, the “% Inhibition” value amounted to 42%.

“799844 (antisense kA*kG*kA*dG*dG*dA*dG*dG*dA*dG*dG*d[5mC]*dA*kA*kA*kT) [compound 799844]”: the “% Inhibition” value was determined as 11%.

On to “799845 (antisense kG*kA*kA*dG*dT*dA*d[5mC]*d[5mC]*dT*dA*dG*dA*dG*kG*kA*kG) [compound 799845]”, for which the “% Inhibition” value amounted to 31%.

In the case of “799846 (kT*k[5mC]*k[5mC]*dA*d[5mC]*dT*dA*dT*dT*d[5mC]*dT*dA*dT*kG*kA*kA; antisense) [compound 799846]”, the “% Inhibition” value came out at 25%.

As to “799847 (kT*kT*k[5mC]*d[5mC]*dA*d[5mC]*dT*dA*dT*dT*d[5mC]*dT*dA*kT*kG*kA; antisense) [compound 799847]”, the “% Inhibition” value turned out to be 30%.

On to “799848 (kA*kG*k[5mC]*d[5mC]*dG*dA*dT*d[5mC]*dA*d[5mC]*dA*dA*dA*kA*kG*kG; antisense) [compound 799848]”, for which the “% Inhibition” value is on record as 59%.

Consider “799849 (kA*kT*kA*dA*dG*d[5mC]*d[5mC]*dG*dA*dT*d[5mC]*dA*d[5mC]*kA*kA*kA; antisense) [compound 799849]”, for which the “% Inhibition” value was 41%.

The series is the same for the next values; noted with them: Hep3B cells, electroporation with 10,000 nM antisense oligonucleotide, approximately 24 hours, SMAD7 mRNA by RT-PCR (RTS5062), relative to untreated control cells.
For “799850 (kG*k[5mC]*kA*dA*dT*dA*dA*dA*dT*d[5mC]*dA*dA*d[5mC]*k[5mC]*kA*kG; antisense) [compound 799850]”, the “% Inhibition” value came to 49%.

As to “799861 (kA*k[5mC]*k[5mC]*dG*d[5mC]*dA*dT*dG*d[5mC]*dG*dA*dT*d[5mC]*kG*kG*kT; antisense) [compound 799861]”, the “% Inhibition” value was found to be 15%.

With “799862 (k[5mC]*k[5mC]*k[5mC]*dA*d[5mC]*d[5mC]*dG*d[5mC]*dA*dT*dG*d[5mC]*dG*kA*kT*k[5mC]; antisense) [compound 799862]”, the “% Inhibition” value came to 14%.

As to “799863 (kG*kG*k[5mC]*dT*d[5mC]*d[5mC]*d[5mC]*d[5mC]*d[5mC]*dA*d[5mC]*d[5mC]*dG*k[5mC]*kA*kT; antisense) [compound 799863]”, the “% Inhibition” value came out at 16%.

Regarding “799864 (k[5mC]*kT*k[5mC]*dA*dA*dG*d[5mC]*d[5mC]*d[5mC]*dA*d[5mC]*d[5mC]*d[5mC]*k[5mC]*kG*kG; antisense) [compound 799864]”, the “% Inhibition” value is 42%.

In the case of “799865 (kG*kG*kG*dA*d[5mC]*dA*dG*dA*d[5mC]*dT*dG*dT*d[5mC]*k[5mC]*k[5mC]*k[5mC]; antisense) [compound 799865]”, the “% Inhibition” value was 0%.

With “799866 (k[5mC]*kA*k[5mC]*d[5mC]*dG*d[5mC]*dG*d[5mC]*dA*dG*dG*dG*dA*k[5mC]*kA*kG; antisense) [compound 799866]”, the “% Inhibition” value worked out at 0%.

“799867 (k[5mC]*kT*k[5mC]*d[5mC]*dA*dA*dT*d[5mC]*dT*dG*dG*d[5mC]*dT*kG*kG*kT; antisense) [compound 799867]”: the “% Inhibition” value is on record as 24%.

In the case of “799868 (k[5mC]*kA*kT*dA*dA*dA*d[5mC]*dA*dT*dG*dG*dG*d[5mC]*kT*k[5mC]*k[5mC]; antisense) [compound 799868]”, the “% Inhibition” value is listed as 34%.

Consider “799869 (k[5mC]*k[5mC]*kA*dT*dA*dA*dA*d[5mC]*dA*dT*dG*dG*dG*k[5mC]*kT*k[5mC]; antisense) [compound 799869]”, for which the “% Inhibition” value worked out at 16%.

In the case of “799870 (kA*k[5mC]*k[5mC]*d[5mC]*dA*dG*dA*dA*dG*d[5mC]*dT*dG*d[5mC]*kT*kG*kT; antisense) [compound 799870]”, the “% Inhibition” value is listed as 18%.

Staying with this series, now noted: Hep3B cells, electroporation, 10,000 nM antisense oligonucleotide, approximately 24 hours, RTS5062, relative to untreated control cells.
On to “799820 (antisense k[5mC]*k[5mC]*k[5mC]*d[5mC]*dA*dG*d[5mC]*dA*dG*dG*dG*dT*dT*kT*kT*kG) [compound 799820]”, for which the “% inhibition of SMAD7 mRNA expression” value worked out at 0%.

With “799831 (antisense kT*kA*k[5mC]*dT*dT*dG*dG*dA*dA*dG*dA*dG*dT*kT*kT*kG) [compound 799831]”, the “% inhibition of SMAD7 mRNA expression” value worked out at 18%.

Regarding “799832 (antisense k[5mC]*kA*k[5mC]*d[5mC]*d[5mC]*dA*dT*dA*d[5mC]*dT*dT*dG*dG*kA*kA*kG) [compound 799832]”, the “% inhibition of SMAD7 mRNA expression” value worked out at 14%.

Take “799833 (antisense kT*kT*kT*d[5mC]*dT*dG*dA*dA*d[5mC]*dA*dG*dA*dG*kT*k[5mC]*k[5mC]) [compound 799833]”: the “% inhibition of SMAD7 mRNA expression” value is on record as 39%.

Turning to “799834 (antisense kG*kT*kG*dG*dT*dA*dT*dA*dG*d[5mC]*dA*dT*dG*k[5mC]*kA*kT) [compound 799834]”, the “% inhibition of SMAD7 mRNA expression” value came to 0%.

As to “799835 (antisense kG*k[5mC]*kA*dG*dA*dT*dG*dT*dA*dT*dA*d[5mC]*dA*kA*kA*kT) [compound 799835]”, the “% inhibition of SMAD7 mRNA expression” value is listed as 70%.

Regarding “799836 (antisense kA*kG*kA*dT*dA*dT*d[5mC]*dG*dG*d[5mC]*d[5mC]*d[5mC]*d[5mC]*k[5mC]*kT*kG) [compound 799836]”, the “% inhibition of SMAD7 mRNA expression” value is recorded as 61%.

In general, % Inhibition refers to the drop in the measured response relative to a control, in per cent. A lower % Inhibition goes with a weak effect.
